Results from patent US20250304587A1, “WEE1 INHIBITOR, PREPARATION THEREFOR AND USE THEREOF” (JIANGSU TASLY DIYI PHARMACEUTICAL CO., LTD., priority 2022, published 2025).

Experiments:
[1] = tested on: HT-29 cells; test: Cell Titer-Glo anti-proliferation, HT-29 cells; type: cell-based, human; conditions: 3 days, read-out: Anti-proliferative activity HT-29 (IC50 class)
Protocol: (§1) A. Evaluation of the Anti-Proliferative Effect of Compounds on BxPC3, HT-29 and OVCAR-3 Cells by the Cell Titer-Glo Method
(§2) Compound solutions of different concentration gradients were prepared. […] The cell growth group without compound was used as a positive control (maximum signal control) and the medium was used as a negative control (minimum signal control), while ensuring that the final level of DMSO in each reaction well was 0.2%. After removing the medium from the 384-well plate, 25 μl of the configured compound at different concentrations was transferred into the well plate and the compound and cells were incubated in the cell incubator at 37° C. with 5% CO2 for 3 days.
(§3) The 384-well plates were removed from the cell incubator and allowed to equilibrate for 1 h to room temperature. 25 μl of Cell Titer-Glo assay was added to each well, lysed on a shaker for 2 min and then read out (Luminescence) using a BMG PHERAStar after 10 min incubation. Calculate the inhibition rate from the luminescence signal.
(§4) to calculate the rate of inhibition of the cells by different concentrations of the compounds. The IC50 of the compound on cell activity inhibition was calculated by fitting a log(inhibitor) vs. response-Variable slope model to GraphPad Prism 6. The fitted equation was: Y=Bottom+(Top-Bottom)/(1+10^((Log IC50−X)*HillSlope)), where Y represents the rate of inhibition and X represents the concentration of the known compound after Log.

[2] = tested on: BxPC3 cells; test: Cell Titer-Glo anti-proliferation, BxPC3 cells; type: cell-based, human; conditions: 3 days, read-out: Anti-proliferative activity BxPC3 (IC50 class)
Protocol: as §1, §2, §3, §4

[3] = tested on: OVCAR-3 cells; test: Cell Titer-Glo anti-proliferation, OVCAR-3 cells; type: cell-based; conditions: 3 days, read-out: Anti-proliferative activity OVCAR-3 (IC50 class)
Protocol: as §1, §2, §3, §4

Compound | IC50 [1] [nM] | IC50 [2] [nM] | IC50 [3] [nM]
C=CCn1c(=O)c2cnc(Nc3ccc(N4CCN(C)CC4)cc3)nc2n1-c1ccc2c(n1)C(C)(O)C1(CC1)C2 (single isomer, unassigned) [Compound 3a] | 1000 to 2000 | 1000 to 2000 | 1000 to 2000
C=CCn1c(=O)c2cnc(Nc3ccc(N4CCC(N(C)C)CC4)cc3)nc2n1-c1ccc2c(n1)C(O)C1(CC2)CC1 (single isomer, unassigned) [Compound 66a] | 1000 to 2000 | 2000 to 5000 | 2000 to 5000
C=CCn1c(=O)c2cnc(Nc3ccc(N4CCN(C)CC4)c(F)c3)nc2n1-c1ccc2c(n1)C(O)(CC)C1(CC1)C2 (centres unmarked) [Compound 33] | 1000 to 2000 | 2000 to 5000 | 2000 to 5000
C=CCn1c(=O)c2cnc(Nc3ccc(N4CCC(N(C)C)[C@@H](F)C4)cc3)nc2n1-c1ccc2c(n1)[C@@](C)(O)C1(CC1)C2 (single isomer, unassigned) [Compound 20b] | 1000 to 2000 | 1000 to 2000 | 1000 to 2000
C=CCn1c(=O)c2cnc(Nc3ccc(N4CC5CCC(C4)N5C)cc3)nc2n1-c1ccc2c(n1)C(O)(CC)C1(CC1)C2 (racemic) [Compound 25] | 1000 to 2000 | 1000 to 2000 | 100 to 1000
C=CCn1c(=O)c2cnc(Nc3ccc(N4CCN(C)CC4)cc3)nc2n1-c1ccc2c(c1)C(O)(CC)C1(CC1)C2 (racemic) [Compound 29] | 1000 to 2000 | 2000 to 5000 | 100 to 1000
C=CCn1c(=O)c2cnc(Nc3ccc(N4CCC5(CC4)CN(C)C5)cc3)nc2n1-c1ccc2c(n1)C(C)(O)C1(CC2)CC1 (racemic) [Compound 47] | > 10000 | > 10000 | > 10000
C=CCn1c(=O)c2cnc(Nc3ccc(N4CCN(C)[C@H](C)C4)cc3)nc2n1-c1ccc2c(n1)[C@@H](O)C1(CC2)CC1 (single isomer, unassigned) [Compound 68a] | 1000 to 2000 | 2000 to 5000 | 2000 to 5000
C=CCn1c(=O)c2cnc(Nc3ccc(N4CCN(C(C)C)CC4)cc3)nc2n1-c1ccc2c(n1)C(O)C1(CC2)CC1 (single isomer, unassigned) [Compound 57a] | 1000 to 2000 | 2000 to 5000 | 2000 to 5000
C=CCn1c(=O)c2cnc(Nc3ccc(N4CC5CC(C4)N5C)c(C)c3)nc2n1-c1ccc2c(n1)C(O)C1(CC2)CC1 (centres unmarked) [Compound 67] | 1000 to 2000 | 1000 to 2000 | 1000 to 2000
C=CCn1c(=O)c2cnc(Nc3ccc(N4CCC(N(C)C)CC4)cc3)nc2n1-c1ccc2c(n1)[C@](O)(C(F)(F)F)C1(CC2)CC1 (single isomer, unassigned) [Compound 54a] | 1000 to 2000 | 2000 to 5000 | 2000 to 5000
C=CCn1c(=O)c2cnc(Nc3ccc(N4CC5CC(C4)N5CC)cc3)nc2n1-c1ccc2c(n1)[C@](C)(O)C1(CC2)CC1 [Compound 51b] | – | 100 to 1000 | –
C=CCn1c(=O)c2cnc(Nc3ccc(N4CCN(C)CC4)cc3)nc2n1-c1ccc2c(n1)[C@](O)(C(F)(F)F)C1(CC2)CC1 (single isomer, unassigned) [Compound 53a] | 1000 to 2000 | 2000 to 5000 | 2000 to 5000
C=CCn1c(=O)c2cnc(Nc3ccc(N4CCC(N(C)C)C(F)C4)cc3)nc2n1-c1ccc2c(n1)C(C)(O)C1(CC1)C2 (single isomer, unassigned) [Compound 20a] | 1000 to 2000 | 1000 to 2000 | 1000 to 2000
C=CCn1c(=O)c2cnc(Nc3ccc(N4CCC5(CCN(C)CC5)CC4)cc3)nc2n1-c1ccc2c(n1)[C@](C)(O)C1(CC2)CC1 [Compound 44b] | – | 100 to 1000 | –
C=CCn1c(=O)c2cnc(Nc3ccc(N4CCN(C)CC4)cc3)nc2n1-c1ccc2c(n1)N(CC)CC21CCC1 [Compound 16] | 100 to 1000 | 1000 to 2000 | –

Further lines, results first:

IC50 [1] [nM] | IC50 [2] [nM] | IC50 [3] [nM] | Compound
100 to 1000 | 1000 to 2000 | 100 to 1000 | C=CCn1c(=O)c2cnc(Nc3ccc(N4CCN(C)[C@H](C)C4)cc3)nc2n1-c1ccc2c(n1)C(O)(CC)C1(CC1)C2 (some centres unmarked) [Compound 40]
100 to 1000 | 100 to 1000 | 1000 to 2000 | C=CCn1c(=O)c2cnc(Nc3ccc(N4CC5CC(C4)N5C)cc3)nc2n1-c1ccc2c(n1)[C@H](O)C1(CC2)CC1 (single isomer, unassigned) [Compound 34b]
100 to 1000 | 1000 to 2000 | 100 to 1000 | C=CCn1c(=O)c2cnc(Nc3ccc(N4CCC5(CCN(C)CC5)CC4)cc3)nc2n1-c1ccc2c(n1)[C@](O)(CC)C1(CC2)CC1 (single isomer, unassigned) [Compound 69a]
100 to 1000 | 100 to 1000 | 100 to 1000 | C=CCn1c(=O)c2cnc(Nc3ccc(N4CCC5(CCN(C)CC5)CC4)c(F)c3)nc2n1-c1ccc2c(n1)C(O)C1(CC2)CC1 (centres unmarked) [Compound 62b]
100 to 1000 | – | 2000 to 5000 | C=CCn1c(=O)c2cnc(Nc3ccc(N4CC5CC(C4)N5C)cc3)nc2n1-c1ccc2c(n1)C(O)C1(CC2)CC1 (single isomer, unassigned) [Compound 34a]
100 to 1000 | 2000 to 5000 | 100 to 1000 | C=CCn1c(=O)c2cnc(Nc3ccc(N4CCC(N(C)C)CC4)cc3)nc2n1-c1ccc2c(n1)C(C)(O)C1(CC1)C2 (racemic) [Compound 12]
100 to 1000 | 100 to 1000 | 100 to 1000 | C=CCn1c(=O)c2cnc(Nc3ccc(N4CCC(N(C)C)CC4)c(C)c3)nc2n1-c1ccc2c(n1)[C@@](C)(O)C1(CC1)C2 (single isomer, unassigned) [Compound 42b]
100 to 1000 | 100 to 1000 | 100 to 1000 | C=CCn1c(=O)c2cnc(Nc3ccc(N4CCC(N(C)C)CC4)c(C)c3)nc2n1-c1ccc2c(n1)[C@](C)(O)C1(CC1)C2 (single isomer, unassigned) [Compound 42a]
100 to 1000 | 1000 to 2000 | 100 to 1000 | C=CCn1c(=O)c2cnc(Nc3ccc(N4CC5CC(C4)N5C4CCC4)cc3)nc2n1-c1ccc2c(n1)C(O)(CC)C1(CC1)C2 (single isomer, unassigned) [Compound 22a]
100 to 1000 | 100 to 1000 | 100 to 1000 | C=CCn1c(=O)c2cnc(Nc3ccc(N4CCC5(CCN(C)CC5)CC4)c(C)c3)nc2n1-c1ccc2c(n1)C(O)C1(CC2)CC1 (single isomer, unassigned) [Compound 61a]
100 to 1000 | 1000 to 2000 | 2000 to 5000 | C=CCn1c(=O)c2cnc(Nc3ccc(N4CC5CN(C)CC5C4)cc3)nc2n1-c1ccc2c(n1)C(O)(C(F)(F)F)C1(CC2)CC1 (single isomer, unassigned) [Compound 58a]
100 to 1000 | 100 to 1000 | 100 to 1000 | C=CCn1c(=O)c2cnc(Nc3ccc(N4CC5CC(C4)N5C(C)C)cc3)nc2n1-c1ccc2c(n1)[C@](C)(O)C1(CC2)CC1 (single isomer, unassigned) [Compound 35a]
100 to 1000 | 1000 to 2000 | 100 to 1000 | C=CCn1c(=O)c2cnc(Nc3ccc(N4CCC(N(C)C)CC4)c(C)c3)nc2n1-c1ccc2c(n1)C(O)C1(CC2)CC1 (single isomer, unassigned) [Compound 41a]
100 to 1000 | 1000 to 2000 | – | C=CCn1c(=O)c2cnc(Nc3ccc(N4CCN(C)CC4)cc3)nc2n1-c1ccc2c(n1)C(C)(O)C1(CC2)CC1 (single isomer, unassigned) [Compound 6b]
